# Non-standard residues stand in square brackets, D forms with d. Residues, ends and D or L forms follow the SMILES beside them. *: point of attachment. 1Nal = N[C@@H](Cc1cccc2ccccc12)C(=O)O; Bn = c1ccc(C*)cc1
# Assays:
# [1] = molecular target: T1, endothelin receptor A (ETA) (Sus scrofa, UniProt Q29010); assay: Assay of affinity for receptor (1): binding activity on ETA receptor, 125I-labeled endothelin-1, porcine heart membrane fraction; parameters: key: relative specific activity; reference cyclic pentapeptide ETA binding = 1.0; details: specific activity, taking the binding activity of control cyclo[-D-Glu-Ala-D-aIle-Leu-D-Trp-] on receptor A as 1.0, 25°C, 1 hour
# T1 construct: A membrane fraction prepared from the porcine heart; from tissue; host or cells: porcine heart membrane fraction
# T1 sequence (Q29010 21-427): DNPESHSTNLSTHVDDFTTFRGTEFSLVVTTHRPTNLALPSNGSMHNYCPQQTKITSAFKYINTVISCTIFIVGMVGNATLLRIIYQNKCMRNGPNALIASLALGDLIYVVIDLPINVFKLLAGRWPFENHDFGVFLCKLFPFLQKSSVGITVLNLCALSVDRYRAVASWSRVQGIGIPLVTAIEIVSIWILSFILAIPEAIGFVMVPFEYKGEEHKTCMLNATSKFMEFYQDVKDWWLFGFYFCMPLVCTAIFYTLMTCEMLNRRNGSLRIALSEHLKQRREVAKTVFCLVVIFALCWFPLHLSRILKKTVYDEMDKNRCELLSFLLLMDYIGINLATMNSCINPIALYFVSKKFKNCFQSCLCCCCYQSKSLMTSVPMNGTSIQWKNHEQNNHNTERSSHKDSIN
# Procedure, shortened: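 Porcine heart membranes (0.15 mg/ml) incubated with 125I-endothelin-1 and test peptide for 1 h at 25°C, then centrifuged; pellet-bound radioactivity counted by gamma counter. Values given as specific activity relative to reference cyclo[-D-Glu-Ala-D-aIle-Leu-D-Trp-], set at 1.0.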
# [2] = molecular target: T2, endothelin receptor B (ETB) (Bos taurus, UniProt P28088); assay: Assay of affinity for receptor (2): binding activity on ETB receptor *1, 125I-labeled endothelin-1, bovine brain membrane fraction; details: 1 hour; for Binding Activity on ET Receptor (R. act.) ETB*1: specific activity, taking the binding activity of the compound of Example 8 on receptor B as 100, 25°C
# T2 construct: A membrane fraction prepared from the bovine brain; from tissue; host or cells: bovine brain membrane fraction
# T2 sequence (P28088 27-441): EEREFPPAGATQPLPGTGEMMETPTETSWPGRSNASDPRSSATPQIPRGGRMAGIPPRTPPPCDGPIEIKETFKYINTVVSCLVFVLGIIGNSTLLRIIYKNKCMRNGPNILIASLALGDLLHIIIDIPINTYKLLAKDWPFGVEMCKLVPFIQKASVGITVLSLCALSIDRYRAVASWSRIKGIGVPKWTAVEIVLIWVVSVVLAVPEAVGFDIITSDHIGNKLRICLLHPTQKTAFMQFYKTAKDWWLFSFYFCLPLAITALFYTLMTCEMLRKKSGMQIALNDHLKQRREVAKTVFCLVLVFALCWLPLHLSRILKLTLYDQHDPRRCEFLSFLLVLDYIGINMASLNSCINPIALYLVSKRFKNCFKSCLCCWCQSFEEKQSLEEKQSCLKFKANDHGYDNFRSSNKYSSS
# Description: Assay of Affinity for Receptor (2) ... Binding Activity on ETB Receptor *1
# A membrane fraction prepared from the bovine brain was diluted to 0.15 mg/ml by using a buffer solution for assay, and 100 µl of the resulting suspension of the membrane fraction was poured into each assay tube to use for assay. To this suspension of the membrane fraction was added 2 µl of 5 nM ^125I labeled endothelin-1 solution. Further, 3 µl of a test peptide solution was added thereto, followed by incubation at a temperature of 25°C for 1 hour. Then, the resulting suspension was diluted with 900 µl of the buffer solution for assay cooled with ice, and thereafter separated into a supernatant and a precipitate by centrifugation at 12,000 X g for 10 minutes. Cell membranes and an endothelin receptor B (ETB) embedded therein were contained in the precipitate, and radioactive iodine-labeled endothelin bound to the receptor was also recovered in the precipitate. Accordingly, the amount of radioactive iodine-labeled endothelin bound to the endothelin receptor B (ETB) was determined by measuring the amount of radioactive iodine contained in the precipitate with a gamma-ray counter. The numerical value of ETB shown in Table 1 is the value of specific activity, taking the binding activity of the compound of Example 8 on the receptor B as 100.
# ETB = ETB radio receptor assay *2, 125I-endothelin-1, guinea pig kidney crude membrane fraction; assay type: binding, Guinea pigs; details: relative activity, 37 °C, 90 minutes
# Procedure, shortened: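 Radioligand binding used crude guinea pig kidney membranes (2.1 µg protein) with 740 Bq 125I-endothelin-1. Incubation was 90 min at 37 °C in 50 mM Tris-HCl pH 7.4, 0.1 mM PMSF, 1 mM EDTA, 0.2% BSA. Bound radioactivity was collected by GF/B filtration and measured by gamma counting.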
Compound,Binding Activity on ET Receptor (R. act.) ETA [1],IC50 ([2]; 25°C) [µM],Binding Activity on ET Receptor (R. act.) ETB*1 [2],Binding Activity on ET Receptor (R. act.) ETB*2 (ETB)
"CC(C)C[C@@H]1NC(=O)[C@@H](CC(C)C)NC(=O)[C@H](CC(=O)O)NC(=O)[C@H](Cc2c[nH]c3ccccc23)NC(=O)[C@@H](CC(=O)O)NC(=O)[C@@H](Cc2c[nH]c3ccccc23)NC1=O [Example 8, cyclo[-D-Asp-Trp-Asp-D-Leu-Leu-D-Trp-]] (cyclo(D[dL]L[dW][dD]W))",76,3,100,100
"CC(C)C[C@@H]1NC(=O)[C@H](Cc2c[nH]c3ccccc23)NC(=O)[C@@H](CC(=O)O)NC(=O)[C@@H](Cc2c[nH]c3ccccc23)NC(=O)[C@H](CC(C)C)NC(=O)[C@@H](CC(C)C)NC1=O [Example 35, Cyclo[-D-Asp-Trp-Leu-D-Leu-Leu-D-Trp-]] (cyclo(L[dL]L[dW][dD]W))",9.1,–,52,24
"CC(C)C[C@@H]1NC(=O)[C@@H](CC(C)C)NC(=O)[C@@H]2CCCN2C(=O)[C@H](Cc2c[nH]c3ccccc23)NC(=O)[C@@H](CC(=O)O)NC(=O)[C@@H](Cc2c[nH]c3ccccc23)NC1=O [Example 36, Cyclo[-D-Asp-Trp-Pro-D-Leu-Leu-D-Trp-]] (cyclo(L[dW][dD]WP[dL]))",17,–,40,42
"CC(C)C[C@@H]1NC(=O)[C@@H](CC(C)C)NC(=O)[C@H](CO)NC(=O)[C@H](Cc2c[nH]c3ccccc23)NC(=O)[C@@H](CC(=O)O)NC(=O)[C@@H](Cc2c[nH]c3ccccc23)NC1=O [Example 37, Cyclo[-D-Asp-Trp-Ser-D-Leu-Leu-D-Trp-]] (cyclo(L[dW][dD]WS[dL]))",24,–,22,18

# Continued, values first:
Binding Activity on ET Receptor (R. act.) ETA [1],IC50 ([2]; 25°C) [µM],Binding Activity on ET Receptor (R. act.) ETB*1 [2],Binding Activity on ET Receptor (R. act.) ETB*2 (ETB),Compound
8.3,–,11,7.7,"CC(C)C[C@@H]1NC(=O)[C@@H](CC(C)C)NC(=O)[C@H](CC(=O)O)NC(=O)[C@H](Cc2cccc3ccccc23)NC(=O)[C@@H](CC(=O)O)NC(=O)[C@@H](Cc2c[nH]c3ccccc23)NC1=O [Example 23, Cyclo[-D-Asp-Nal(1)-Asp-D-Leu-Leu-D-Trp-]] (cyclo([1Nal]D[dL]L[dW][dD]))"
20,–,77,44,"CC(C)C[C@@H]1NC(=O)[C@@H](CC(C)C)NC(=O)[C@H](CCC(=O)O)NC(=O)[C@H](Cc2c[nH]c3ccccc23)NC(=O)[C@@H](CC(=O)O)NC(=O)[C@@H](Cc2c[nH]c3ccccc23)NC1=O [Example 34, Cyclo[-D-Asp-Trp-Glu-D-Leu-Leu-D-Trp-]] (cyclo(E[dL]L[dW][dD]W))"
13,–,66,170,"CC(C)C[C@@H]1NC(=O)[C@@H](CC(C)C)NC(=O)[C@H](COCc2ccccc2)NC(=O)[C@H](Cc2c[nH]c3ccccc23)NC(=O)[C@@H](CC(=O)O)NC(=O)[C@@H](Cc2c[nH]c3ccccc23)NC1=O [Example 38, Cyclo[-D-Asp-Trp-Ser(Bzl)-D-Leu-Leu-D-Trp-]] (cyclo(L[dW][dD]WS(Bn)[dL]))"

# — patent EP0552417B1, “Cyclic peptides and use thereof” (priority 1991, dated 1993)
